# Measurements published in ChEMBL document CHEMBL4396865, “Current advances of triazole alcohols derived from fluconazole: Design, in vitro and in silico studies” (2019).
# Legend:
# Assay type in all cases: functional
# Candida albicans [1] = assay: Antifungal activity against Candida albicans; conditions: Candida albicans
# Candida parapsilosis [2] = assay: Antifungal activity against Candida parapsilosis; conditions: Lodderomyces parapsilosis
# Candida tropicalis [3] = assay: Antifungal activity against Candida tropicalis; conditions: Candida tropicalis
# Cryptococcus neoformans [4] = assay: Antifungal activity against Cryptococcus neoformans; conditions: Cryptococcus neoformans
# Pichia kudriavzevii = assay: Antifungal activity against Candida krusei
# Candida albicans [5] = assay: Antifungal activity against fluconalzole-susceptible Candida albicans after 24 hrs
# Candida parapsilosis [6] = assay: Antifungal activity against fluconalzole-susceptible Candida parapsilosis after 24 hrs; conditions: Lodderomyces parapsilosis
# Candida tropicalis [7] = assay: Antifungal activity against Candida tropicalis after 24 hrs by microbroth dilution method
# Trichophyton rubrum [8] = assay: Antifungal activity against Trichophyton rubrum after 24 hrs by microbroth dilution method
# Microsporum canis [9] = assay: Antifungal activity against Microsporum canis after 24 hrs by microbroth dilution method
# Fonsecaea compacta [10] = assay: Antifungal activity against Fonsecaea compacta after 24 hrs by microbroth dilution method
# Aspergillus fumigatus [11] = assay: Antifungal activity against Aspergillus fumigatus after 24 hrs by microbroth dilution method
# Candida tropicalis [12] = assay: Potency index, ratio of fluconazole MIC to test compound MIC for Candida tropicalis
# Candida albicans [13] = assay: Potency index, ratio of fluconazole MIC to test compound MIC for Candida albicans ATCC 76615
# Cryptococcus neoformans [14] = assay: Potency index, ratio of fluconazole MIC to test compound MIC for activity against Cryptococcus neoformans ATCC 32609
# Trichophyton rubrum [15] = assay: Potency index, ratio of fluconazole MIC to test compound MIC for Trichophyton rubrum
# Microsporum canis [16] = assay: Potency index, ratio of fluconazole MIC to test compound MIC for Microsporum canis
# Fonsecaea compacta [17] = assay: Potency index, ratio of fluconazole MIC to test compound MIC for Fonsecaea compacta
# Aspergillus fumigatus [18] = assay: Potency index, ratio of fluconazole MIC to test compound MIC for Aspergillus fumigatus
# Aspergillus fumigatus [19] = assay: Antifungal activity against Aspergillus fumigatus; conditions: Aspergillus fumigatus; read-out: MIC
SMILES,MIC80 (Candida albicans [1]),MIC80 (Candida parapsilosis [2]),MIC80 (Candida tropicalis [3]),MIC80 (Cryptococcus neoformans [4]),MIC80 (Pichia kudriavzevii),MIC80 (Candida tropicalis [7]),MIC80 (Trichophyton rubrum [8]),MIC80 (Microsporum canis [9]),MIC80 (Fonsecaea compacta [10]),MIC80 (Aspergillus fumigatus [11]),Ratio (Candida tropicalis [12]),Ratio (Candida albicans [13]),Ratio (Cryptococcus neoformans [14]),Ratio (Trichophyton rubrum [15]),Ratio (Microsporum canis [16]),Ratio (Fonsecaea compacta [17]),Ratio (Aspergillus fumigatus [18]),other results
Cc1ccc(NC(=O)CN(C)CC(O)(Cn2cncn2)c2ccc(F)cc2F)c(C)c1 (stereo not given),0.0156 µg/mL,0.25 to 1 µg/mL,0.25 to 1 µg/mL,0.0156 µg/mL,0.25 to 1 µg/mL,–,–,–,–,–,–,–,–,–,–,–,–,–
OC(Cn1cncn1)(Cn1cnc(SCc2ccc(F)cc2)n1)c1ccc(F)cc1F (stereo not given),–,–,–,–,–,–,–,–,–,–,–,–,–,–,–,–,–,MIC (Candida albicans [5]): 0.063 to 1 µg/mL; MIC (Candida parapsilosis [6]): 0.063 to 1 µg/mL
OC(Cn1cncn1)(Cn1cnc(SCc2cccc(F)c2)n1)c1ccc(F)cc1F (stereo not given),–,–,–,–,–,–,–,–,–,–,–,–,–,–,–,–,–,MIC (Candida albicans [5]): 0.063 to 1 µg/mL; MIC (Candida parapsilosis [6]): 0.063 to 1 µg/mL
OC(CN(Cc1ccc(F)cc1F)C1CC1)(Cn1cncn1)c1ccc(F)cc1F (stereo not given),–,–,–,–,–,0.125 µg/mL,0.125 µg/mL,0.125 µg/mL,0.125 µg/mL,0.125 µg/mL,4,4,4,4,4,4,4,–
CN(CC(=O)Nc1ccc(Br)cc1)CC(O)(Cn1cncn1)c1ccc(F)cc1F (stereo not given),0.0156 µg/mL,0.25 to 1 µg/mL,0.25 to 1 µg/mL,0.0156 µg/mL,0.25 to 1 µg/mL,–,–,–,–,–,–,–,–,–,–,–,–,–
CN(CC(=O)Nc1ccccc1)CC(O)(Cn1cncn1)c1ccc(F)cc1F (stereo not given),0.0156 µg/mL,0.25 to 1 µg/mL,0.25 to 1 µg/mL,0.0156 µg/mL,0.25 to 1 µg/mL,–,–,–,–,–,–,–,–,–,–,–,–,–
Cc1ccc(NC(=O)CN(C)CC(O)(Cn2cncn2)c2ccc(F)cc2F)cc1 (stereo not given),0.0156 µg/mL,0.25 to 1 µg/mL,0.25 to 1 µg/mL,0.0156 µg/mL,0.25 to 1 µg/mL,–,–,–,–,–,–,–,–,–,–,–,–,–
OC(CN(Cc1ccc(Br)cc1)C1CC1)(Cn1cncn1)c1ccc(F)cc1F (stereo not given),–,–,–,–,–,0.125 µg/mL,0.125 µg/mL,0.125 µg/mL,0.125 µg/mL,0.125 µg/mL,4,4,4,4,4,4,4,–
COc1cccc(NC(=O)CN(C)CC(O)(Cn2cncn2)c2ccc(F)cc2F)c1 (stereo not given),0.0156 µg/mL,0.25 to 1 µg/mL,0.25 to 1 µg/mL,0.0156 µg/mL,0.25 to 1 µg/mL,–,–,–,–,–,–,–,–,–,–,–,–,–
OC(CN(Cc1ccccc1)C1CC1)(Cn1cncn1)c1ccc(F)cc1F (stereo not given),–,–,–,–,–,0.125 µg/mL,0.125 µg/mL,0.125 µg/mL,0.125 µg/mL,0.125 µg/mL,4,4,4,4,4,4,4,–
CCCCOc1ccccc1N1CCN(CCc2nnn(CC(O)(Cn3cncn3)c3ccc(F)cc3F)n2)CC1 (stereo not given),–,–,–,–,–,–,–,–,–,–,–,–,–,–,–,–,–,MIC (Candida albicans [1]; read-out: MIC): 1 to 8 µg/mL; MIC (Candida tropicalis [3]; read-out: MIC): 1 to 8 µg/mL; MIC (Cryptococcus neoformans [4]; read-out: MIC): 1 to 8 µg/mL; MIC (Aspergillus fumigatus [19]): 1 to 8 µg/mL; MIC (Pichia kudriavzevii): 1 to 8 µg/mL
OC(CN(Cc1ccccc1Cl)C1CC1)(Cn1cncn1)c1ccc(F)cc1F (stereo not given),–,–,–,–,–,0.125 µg/mL,0.125 µg/mL,0.125 µg/mL,0.125 µg/mL,0.125 µg/mL,4,4,4,4,4,4,4,–
CC(C)(C)c1ccc(CN(CC(O)(Cn2cncn2)c2ccc(F)cc2F)C2CC2)cc1 (stereo not given),–,–,–,–,–,0.125 µg/mL,0.125 µg/mL,0.125 µg/mL,0.125 µg/mL,0.125 µg/mL,4,4,4,4,4,4,4,–
COc1ccccc1NC(=O)CN(C)CC(O)(Cn1cncn1)c1ccc(F)cc1F (stereo not given),0.0156 µg/mL,0.25 to 1 µg/mL,0.25 to 1 µg/mL,0.0156 µg/mL,0.25 to 1 µg/mL,–,–,–,–,–,–,–,–,–,–,–,–,–
CN(CC(=O)Nc1ccc(Cl)c(Cl)c1)CC(O)(Cn1cncn1)c1ccc(F)cc1F (stereo not given),0.0156 µg/mL,0.25 to 1 µg/mL,0.25 to 1 µg/mL,0.0156 µg/mL,0.25 to 1 µg/mL,–,–,–,–,–,–,–,–,–,–,–,–,–
OC(Cn1cncn1)(Cn1cnc(SCc2ccccc2F)n1)c1ccc(F)cc1F (stereo not given),–,–,–,–,–,–,–,–,–,–,–,–,–,–,–,–,–,MIC (Candida albicans [5]): 0.063 to 1 µg/mL; MIC (Candida parapsilosis [6]): 0.063 to 1 µg/mL
CN(CC(=O)Nc1ccc(F)cc1)CC(O)(Cn1cncn1)c1ccc(F)cc1F (stereo not given),0.0156 µg/mL,0.25 to 1 µg/mL,0.25 to 1 µg/mL,0.0156 µg/mL,0.25 to 1 µg/mL,–,–,–,–,–,–,–,–,–,–,–,–,–
OC(CN(Cc1ccc(Cl)cc1)C1CC1)(Cn1cncn1)c1ccc(F)cc1F (stereo not given),–,–,–,–,–,0.125 µg/mL,0.125 µg/mL,0.125 µg/mL,0.125 µg/mL,0.125 µg/mL,4,4,4,4,4,4,4,–
OC(Cn1cncn1)(Cn1cnc(SCc2ccc(Cl)cc2)n1)c1ccc(F)cc1F (stereo not given),–,–,–,–,–,–,–,–,–,–,–,–,–,–,–,–,–,MIC (Candida albicans [5]): 0.063 to 1 µg/mL; MIC (Candida parapsilosis [6]): 0.063 to 1 µg/mL
